{"source": "patent US11098336B2", "about": "“Biosynthesis of bioorthogonal amino acids” (The Regents of the University of California, priority 2017, dated 2021)", "key": {"BesB": {"biological_target": "T1, BesB (Streptantibioticus cattleyicolor, UniProt G8XHD7)", "T1 construct": "made in house", "T1 sequence (G8XHD7 whole entry)": "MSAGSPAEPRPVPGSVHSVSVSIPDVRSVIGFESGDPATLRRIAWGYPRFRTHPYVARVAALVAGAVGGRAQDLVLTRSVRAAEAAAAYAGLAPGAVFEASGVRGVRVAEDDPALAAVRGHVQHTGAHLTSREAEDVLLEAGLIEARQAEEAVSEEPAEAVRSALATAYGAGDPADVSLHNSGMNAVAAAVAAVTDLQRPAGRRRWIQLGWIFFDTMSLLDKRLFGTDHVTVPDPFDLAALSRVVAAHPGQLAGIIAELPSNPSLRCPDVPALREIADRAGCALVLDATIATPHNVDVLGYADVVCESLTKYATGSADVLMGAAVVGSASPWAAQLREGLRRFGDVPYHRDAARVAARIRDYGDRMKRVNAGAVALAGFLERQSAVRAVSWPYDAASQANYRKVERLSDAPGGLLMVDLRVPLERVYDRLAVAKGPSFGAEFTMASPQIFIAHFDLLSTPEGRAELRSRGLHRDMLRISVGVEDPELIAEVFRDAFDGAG", "assay": "BesB terminal-alkyne (Pra) formation in vitro; isomerization, D2O exchange and PLP-conjugate trapping", "assay_type": "biochemical, Streptomyces cattleya", "conditions": "for formation of Pra by BesB from substrate: in vitro; for binding to BesB as PLP-conjugate: chemical reduction with imine-reducing reagents", "procedure": "We next turned our attention to formation of the terminal-alkyne. BesB belongs to a family of proteins that utilize pyrodoxyal-5′-phosphate (PLP) as cofactor. Incubating purified BesD, BesC, and BesB in the presence of iron, ascorbate, lysine, and PLP was sufficient to produce Pra in vitro. This order of events is […] to how terminal-alkynes are synthesized chemically, since biosynthesis of Pra involves elimination of an alkyl-halide to a terminal-alkyne. Terminal desaturations have previously only been observed on fatty acids and catalyzed by O2/di-iron dependent fatty acid desaturases. […] From in vitro characterization, we also found it was necessary for the amino acid substrate to be halogenated at the Cγ position.\n(§1) While formation of allene-quinonoid can be mechanistically explained, there is no precedence of an enzyme catalyzed allene-alkyne isomerization. One possibility is that BesB forms α-allenyl-glycine enzymatically and isomerization occurs after α-allenyl-glycine is released from PLP. […] Another possibility is BesB produces and releases α-allenyl-glycine, and is subsequently enzymatically isomerized. […] Finally, we explored the possibility of α-allenyl-glycine binding to BesB as a PLP-conjugate by chemically reducing the whole complex with imine-reducing reagents."}, "BesA": {"biological_target": "BesA (Streptantibioticus cattleyicolor, UniProt G8XHD8)", "sequence (G8XHD8 whole entry)": "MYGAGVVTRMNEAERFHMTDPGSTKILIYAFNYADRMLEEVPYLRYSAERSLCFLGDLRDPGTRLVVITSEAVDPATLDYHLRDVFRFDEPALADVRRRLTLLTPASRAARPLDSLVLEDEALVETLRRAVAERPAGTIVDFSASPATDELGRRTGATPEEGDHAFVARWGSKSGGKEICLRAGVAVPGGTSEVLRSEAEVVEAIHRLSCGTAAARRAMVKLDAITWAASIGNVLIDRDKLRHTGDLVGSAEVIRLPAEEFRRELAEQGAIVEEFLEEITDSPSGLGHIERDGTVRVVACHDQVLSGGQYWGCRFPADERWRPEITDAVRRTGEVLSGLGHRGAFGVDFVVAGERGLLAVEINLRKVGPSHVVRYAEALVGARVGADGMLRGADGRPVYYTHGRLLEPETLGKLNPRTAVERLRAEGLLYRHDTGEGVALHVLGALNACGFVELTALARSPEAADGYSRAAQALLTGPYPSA", "assay": "BesA dipeptide formation in vitro with glutamate and ATP, substrate specificity", "assay_type": "biochemical, Streptomyces cattleya", "conditions": "for activity as BesA substrate (ligation to glutamate): reacted with glutamate, ATP", "excerpt": "We then explored the specifity of BesA by reacting glutamate with norvaline, allylglycine, and the remaining 19 canonical amino acids.\nBesA shares homology to carboxylate-amine ligases, which form amides between amines and carboxylates through an ATP-dependent mechanism."}, "BesE": {"biological_target": "BesE (Streptantibioticus cattleyicolor, UniProt F8JJ27)", "sequence (F8JJ27 whole entry)": "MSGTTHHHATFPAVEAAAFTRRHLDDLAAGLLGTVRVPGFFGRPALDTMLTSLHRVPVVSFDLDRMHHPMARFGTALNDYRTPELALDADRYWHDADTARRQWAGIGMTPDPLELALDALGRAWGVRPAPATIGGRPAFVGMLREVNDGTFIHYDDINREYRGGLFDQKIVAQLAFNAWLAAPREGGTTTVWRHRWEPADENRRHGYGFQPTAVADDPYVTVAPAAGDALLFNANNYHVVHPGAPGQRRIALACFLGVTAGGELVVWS", "assay": "BesE hydroxylation in vitro in the presence of ascorbate and α-KG", "assay_type": "biochemical, Streptomyces cattleya", "excerpt": "Knockout strain of putative amino acid hydroxylase, BesE, was only capable of producing Pra. […] This lead us to believe that there might be an amino acid carrier that serves as the true substrate for BesE. Through comparative metabolomics, we were able to identify a metabolite enriched in S. cattleya ΔbesE over wildtype. This compound was also present, but at low concentration, in S. cattleya ΔbesA. We identified this compound as having mass consistent with a Pra-Glu dipeptide. When this compound was fragmented we were able to detect characteristic fragments consistent with an amide bond cleavage, supporting evidence that this compound is a Pra-Glu dipeptide.\nThe last dedicated enzyme involved in the biosynthesis of βes is BesE. Once we had identified Pra-Glu as the product of BesA, it became apparent that the true substrate of BesE is a Pra-Glu dipeptide. S. cattleya ΔbesB, ΔbesC, ΔbesD, and ΔbesE were unable to produce measurable amounts of the dipeptides in vivo. In comparison, ΔbesA was still able to produce βes-Glu but at lower titers when compared to S. cattleya wildtype."}, "BesD from S. cattleya": {"biological_target": "BesD from S. cattleya (Streptantibioticus cattleyicolor, UniProt G8XHD5)", "sequence (G8XHD5 whole entry)": "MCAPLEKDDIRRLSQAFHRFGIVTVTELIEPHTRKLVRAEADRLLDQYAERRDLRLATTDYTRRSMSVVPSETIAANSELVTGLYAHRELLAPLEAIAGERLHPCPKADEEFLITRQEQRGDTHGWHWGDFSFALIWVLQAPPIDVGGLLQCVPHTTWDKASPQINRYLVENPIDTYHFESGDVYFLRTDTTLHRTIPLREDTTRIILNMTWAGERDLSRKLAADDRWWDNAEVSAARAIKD", "assay": "BesD enzyme-coupled assay that reports on succinate production", "assay_type": "biochemical, Streptomyces cattleya", "excerpt": "Activity of BesD from S. cattleya on L-lysine was first screened using an enzyme-coupled assay that reports on succinate production."}, "BesC": {"biological_target": "T2, BesC (Streptantibioticus cattleyicolor, UniProt F8JJ25)", "T2 construct": "made in house", "T2 sequence (F8JJ25 whole entry)": "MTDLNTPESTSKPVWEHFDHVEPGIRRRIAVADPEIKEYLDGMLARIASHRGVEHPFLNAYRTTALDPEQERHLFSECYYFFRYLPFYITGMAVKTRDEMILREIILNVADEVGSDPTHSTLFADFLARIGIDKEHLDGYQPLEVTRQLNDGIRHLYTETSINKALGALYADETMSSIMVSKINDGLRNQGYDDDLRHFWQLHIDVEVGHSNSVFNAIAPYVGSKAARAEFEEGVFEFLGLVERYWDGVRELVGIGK", "assay": "BesC coupled reaction with BesD, cofactors and lysine", "assay_type": "biochemical, Streptomyces cattleya", "conditions": "cofactors", "excerpt": "To further characterize BesC, we then tested the ability of BesC to produce 4-Cl-allygllycine in vitro. Addition of Fe(II) to purified apo-enzyme supports the observed reaction, while omission of Fe(II) results in no reaction, supporting the Fe-dependence of the enzyme."}, "cystathionine-γ-lyase": {"test_system": "cystathionine-γ-lyase", "conditions": "previously identified; cited from earlier work"}, "[1]": {"assay": "spontaneous isomerization of free α-allenyl-glycine in buffered solution / D2O", "assay_type": "physicochemical", "excerpt": "as §1"}}, "data": [{"smiles": "C=C(Br)CC(N)C(=O)O", "note": "(stereo not shown) [4-Br-allylglycine]", "values": [{"measurement": "formation of Pra by BesB from substrate", "setting": "BesB", "value": "able to form Pra"}]}, {"smiles": "C=C(Cl)CC(N)C(=O)O", "note": "(stereo not shown) [4-Cl-allylglycine]", "values": [{"measurement": "formation of Pra by BesB from substrate", "setting": "BesB", "value": "able to form Pra"}]}, {"smiles": "N[C@@H](CS)C(=O)O", "note": "[Cys, cysteine]", "values": [{"measurement": "activity as BesA substrate (ligation to glutamate)", "setting": "BesA", "value": "measurable activity"}]}, {"smiles": "C#CC[C@H](NC(=O)CC[C@H](N)C(=O)O)C(=O)O", "note": "[Glu-Pra dipeptide, γ-Glu-α-Pra]", "values": [{"measurement": "reaction with BesE (hydroxylation)", "setting": "BesE", "value": "able to hydroxylate"}]}, {"smiles": "NCCCC[C@H](N)C(=O)O", "note": "[L-lysine]", "values": [{"measurement": "BesD activity with substrate (rate of NADH production)", "setting": "BesD from S. cattleya", "value": "greatest"}, {"measurement": "accepted as BesC substrate", "setting": "BesC", "value": "accepts lysine as a substrate directly to form allylglycine"}]}, {"smiles": "C#CCC(N)C(=O)O", "note": "(stereo not shown) [Pra, propargylglycine]", "values": [{"measurement": "Km for Pra relative to Km for Cys", "setting": "BesA; BesA substrate", "value": 10, "unit": "fold lower"}, {"measurement": "kcat, Pra compared with Cys", "setting": "BesA; BesA substrate", "value": "comparable"}, {"measurement": "activity as BesA substrate (ligation to glutamate)", "setting": "BesA", "value": "measurable activity"}, {"measurement": "binding to BesB as PLP-conjugate", "setting": "BesB", "value": "able to observe Pra as a PLP bound species"}, {"measurement": "reaction with BesE (hydroxylation)", "setting": "BesE", "value": "no reaction was observed"}, {"measurement": "inhibition of PLP proteins including cystathionine-γ-lyase", "setting": "cystathionine-γ-lyase", "value": "mechanistic, suicide inhibitor"}]}, {"smiles": "C=CCC(N)C(=O)O", "note": "(stereo not shown) [allylglycine]", "values": [{"measurement": "activity as BesA substrate (ligation to glutamate)", "setting": "BesA", "value": "Pra and Cys were the only two amino acids to show any measurable activity"}, {"measurement": "formation of Pra by BesB from substrate", "setting": "BesB", "value": "not when allylglycine is a substrate"}]}, {"smiles": "N=C(N)NCCC[C@H](N)C(=O)O", "note": "[arginine]", "values": [{"measurement": "BesD activity with substrate (rate of NADH production)", "setting": "BesD from S. cattleya", "value": "no activity"}]}, {"smiles": "CCC[C@H](N)C(=O)O", "note": "[norvaline]", "values": [{"measurement": "activity as BesA substrate (ligation to glutamate)", "setting": "BesA", "value": "Pra and Cys were the only two amino acids to show any measurable activity"}, {"measurement": "BesD activity with substrate (rate of NADH production)", "setting": "BesD from S. cattleya", "value": "no activity"}]}, {"smiles": "C=C=CC(N)C(=O)O", "note": "(stereo not drawn) [α-allenyl-glycine, reference compound]", "values": [{"measurement": "binding to BesB as PLP-conjugate", "setting": "BesB", "value": "unable to bind BesB"}, {"measurement": "D2O exchange in the presence of BesB", "setting": "BesB; incubated with BesB in D2O", "value": "neglible D2O exchange"}, {"measurement": "isomerization by BesB", "setting": "BesB; incubated with BesB in D2O", "value": "no isomerization"}, {"measurement": "spontaneous formation of Pra", "setting": "[1]; buffered solution, 24 h, room temperature", "value": "did not produce detectable amounts of Pra"}, {"measurement": "exchange with solvent", "setting": "[1]; incubated in D2O, no enzyme", "value": "negligible exchange"}]}]}
